In BindingDB's records for doi:10.1021/acschembio.6b00382 (Institut de Ge´ne´tique et de Biologie Mole´culaire et …, 2016) one finds IC50 data, which are given here for nine molecules.

pIC50: −log10 of the molar value.

Common to all, as to settings: pH 7
Assay [1] deals with Aldo-keto reductase family 1 member B10 [K125R,V301L] (Homo sapiens, UniProt O60218, K125R/V301L). In words: IC50-Activity Assay (AR). The method, then: (§1) The IC50-activity assays were carried out on the basis of the quantification of the NADPH consumption that takes place when the enzyme catalyzes the conversion of the aldehyde substrate into the alcohol product. […] The final reaction volume was 600 μL per reaction. All compounds were dissolved in dimethyl sulfoxide (DMSO), and the corresponding solution was added to the cell to be assayed in a final concentration of 2% (v/v) DMSO and incubated for 5 min at 25 °C prior to the addition of the substrate. The reaction was initiated by the addition of 1 mM glyceraldehyde, and the decrease in optical density at 340 nm was monitored for at least 3 min at 25 °C in a UV−vis spectrophotometer (Cary 400 Bio (Varian)).

Assay [2] concerns the target T1, Aldo-keto reductase family 1 member B10 (Homo sapiens, UniProt O60218). Description: IC50-Activity Assay (AR). The method, then: as §1
Assay [3] addresses Aldo-keto reductase family 1 member B1 (Homo sapiens, UniProt P15121). Description: IC50-Activity Assay (AR). The method, then:
as §1

Assay [4] concerns the target T1, Aldo-keto reductase family 1 member B10. Description: IC50-Activity Assay (AKR1B10). As to the method: as §1, with “60” for “1”, “glyceraldehyde and 0.2 mM pyridine-3-aldehyde,” for “glyceraldehyde,”, “opticaldensity” for “optical density”

As usually defined, the pIC50 is −log10 of the IC50, conventionally taken in molar units. Lower therefore signals a high IC50.

T1 sequence (O60218 whole entry): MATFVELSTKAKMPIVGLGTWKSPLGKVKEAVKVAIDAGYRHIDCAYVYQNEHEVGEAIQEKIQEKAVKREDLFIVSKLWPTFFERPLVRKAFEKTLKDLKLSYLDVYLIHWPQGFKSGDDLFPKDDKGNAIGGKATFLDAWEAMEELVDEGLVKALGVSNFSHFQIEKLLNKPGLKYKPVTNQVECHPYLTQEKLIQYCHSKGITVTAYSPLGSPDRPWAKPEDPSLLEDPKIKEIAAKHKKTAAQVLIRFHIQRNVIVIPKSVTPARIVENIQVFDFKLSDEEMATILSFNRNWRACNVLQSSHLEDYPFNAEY
Aldo-keto reductase family 1 member B10 [K125R,V301L], sequence (O60218 whole entry K125R/V301L): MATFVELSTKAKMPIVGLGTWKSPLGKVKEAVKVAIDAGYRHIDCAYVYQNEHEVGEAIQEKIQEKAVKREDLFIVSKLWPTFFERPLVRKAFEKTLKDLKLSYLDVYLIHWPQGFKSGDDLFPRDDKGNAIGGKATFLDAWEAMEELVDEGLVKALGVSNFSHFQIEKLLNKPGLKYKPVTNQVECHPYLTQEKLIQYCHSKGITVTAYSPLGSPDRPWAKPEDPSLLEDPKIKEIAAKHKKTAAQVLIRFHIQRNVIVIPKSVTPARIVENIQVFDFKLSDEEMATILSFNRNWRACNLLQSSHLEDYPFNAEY

As to `O=C(O)COc1cc(Cl)ccc1C(=O)NCc1c(Br)c(Br)c(Br)c(Br)c1Br` [2-(5-chloro-2-(((perbromophenyl)methyl)carbamoyl)phenoxy)acetic acid], the pIC50 is 7.10 in assay [1], 7.10 in assay [2], 4.66 in assay [3] and 7.52 in assay [4].
As to `O=C(O)COc1cc(Cl)ccc1C(=O)NCc1ccc(Br)cc1` [MK181], the negative logarithm of the IC50 (pIC50) was 5.35 in assay [1], 5.35 in assay [2] and 5.43 in assay [4].
Consider `O=C(O)COc1cc(F)ccc1C(=S)NCc1ccc(Br)cc1F` [IDD594], for which the pIC50 in assay [3] is 8.52.
Take `CC1=C(CC(=O)O)c2cc(F)ccc2/C1=C\c1ccc([S@@+](C)[O-])cc1` [cis-5-Fluoro-2-methyl-1-((p-methylsulfinyl)benzylidene)indene-3-acetic acid]: in assay [1], the pIC50 was 5.57.
The molecule `COc1c(Br)c(Br)c(Br)c(Br)c1Cn1c(=O)ccn(CC(=O)O)c1=O` [2-(2,4-dioxo-3-(2,3,4,5-tetrabromo-6-methoxybenzyl)-3,4-dihydropyrimidin-1(2H)-yl)acetic acid] showed a pIC50 in assay [1] of 6.35.
On to `O=C(O)COc1cc(Cl)ccc1C(=O)NCc1c(F)c(F)c(Br)c(F)c1F` [MK319], for which the results for the pIC50 in assay [1], in assay [2] and in assay [4] were 5.15, 5.15 and 5.47, respectively.
On to `COc1ccc2c(C(=S)N(C)CC(=O)O)cccc2c1C(F)(F)F` [N-{[6-methoxy-5-(trifluoromethyl)naphthalen-1-yl]carbonothioyl}-N-methylglycine], for which the pIC50 in assay [4] was 8.92.
With `O=C(O)COc1cc(Cl)ccc1C(=O)NCc1c(Br)cc(Br)cc1Br` [2-(5-chloro-2-((2,4,6-tribromobenzyl)carbamoyl)phenoxy)acetic acid], the pIC50 is 6.00 in assay [1], 6.00 in assay [2], 4.67 in assay [3] and 6.37 in assay [4].
As to `O=C(O)COc1cc(Cl)ccc1C(=O)NCc1ccc(Br)cc1F` [IDD388], the results for the pIC50 in assay [1], in assay [2] and in assay [4] were 5.36, 5.36 and 5.57, respectively.
